# Reference: US10894788B2, “Inhibitors of cyclin-dependent kinases” (Kinnate Biopharma Inc., priority 2018, dated 2021)
# Biological target: CDK12 wt/CycK (Homo sapiens (Human), UniProt Q9NYV4)
# Experiment: Radiometric protein kinase assay (33PanQinase Activity Assay), Assay Condition A (thiol containing conditions)
# Assay type: biochemical
# Settings: thiol containing conditions (1.2 mM DTT), ATP 0.3 μM; read-out: CDK12 IC50 Condition A
# Method: Example 1—Assay Condition A (Thiol Containing Conditions)
# Objective: The IC50 profile of test compounds was determined using three protein kinases.
# Test compounds: The compounds were provided as pre-weighed powders in vials. The compounds were dissolved to 1×10^−02M by adding DMSO. 100 μl of each of the resulting stock solutions were transferred into column 2 of four 96 well “master plates”.
# Prior to testing, the 1×10^−02M stock solutions in column 2 of the master plates were subjected to a serial, semi-logarithmic dilution using 100% DMSO as a solvent. […] Column 1 and 7 were filled with 100% DMSO as controls. Subsequently, 2×10 μl from each well of the serial diluted copy plates were aliquoted with a 96 channel pipettor into two identical sets of “compound dilution plates”.
# In the process, 90 μl H2O were added to each well of a set of compound dilution plates. To minimize potential precipitation, the H2O was added to each plate only a few minutes before the transfer of the compound solutions into the assay plates. Each plate was shaken thoroughly, resulting in a “compound dilution plate/10% DMSO”.
# For the assays, 5 μl solution from each well of the compound dilution plates/10% DMSO were transferred into the assay plates. The final volume of the assay was 50 μl. All compounds were tested at 10 final assay concentrations in the range from 1×10^−04M to 3×10^−09M, in singlicate. The final DMSO concentration in the reaction cocktails was 1% in all cases.
# Recombinant protein kinases: All protein kinases were expressed in Sf9 insect cells or in E. coli as recombinant GST-fusion proteins or His-tagged proteins, either as full-length or enzymatically active fragments. All kinases were produced from human cDNAs and purified by either GSH-affinity chromatography or immobilized metal. Affinity tags were removed from a number of kinases during purification. The purity of the protein kinases was examined by SDS-PAGE/Coomassie staining, the identity was checked by mass spectroscopy.
# Protein kinase assay: A radiometric protein kinase assay (^33PanQinase® Activity Assay) was used for measuring the kinase activity of the three protein kinases. All kinase assays were performed in 96-well FlashPlates™ from PerkinElmer (Boston, Mass., USA) in a 50 μl reaction volume. The reaction cocktail was pipetted in four steps in the following order: • 20 μl of assay buffer (standard buffer) • 5 μl of ATP solution (in H2O) • 5 μl of test compound (in 10% DMSO) • 20 μl enzyme/substrate mix
# The following amounts of enzyme and substrate were used per well:
# The reaction cocktails were incubated at 30° C. for 60 minutes. The reaction was stopped with 50 μl of 2% (v/v) H3PO4, plates were aspirated and washed two times with 200 μl 0.9% (w/v) NaCl. Incorporation of ^33Pi was determined with a microplate scintillation counter (Microbeta, Wallac). All assays were performed with a BeckmanCoulter/SAGIAN™ Core System.
# Evaluation of raw data: The median value of the counts in column 1 (n=8) of each assay plate was defined as “low control”. This value reflects unspecific binding of radioactivity to the plate in the absence of a protein kinase but in the presence of the substrate. The median value of the counts in column 7 of each assay plate (n=8) was taken as the “high control”, i.e. full activity in the absence of any inhibitor. The difference between high and low control was taken as 100% activity.
# As part of the data evaluation the low control value from a particular plate was subtracted from the high control value as well as from all 80 “compound values” of the corresponding plate. The residual activity (in %) for each well of a particular plate was calculated by using the following formula: Res. Activity (%)=100×[(cpm of compound−low control)/(high control−low control)]
# The residual activities for each concentration and the compound IC50 values were calculated using Quattro Workflow V3.1.1 (Quattro Research GmbH, Munich, Germany).
# CDK12 wt/CycK, sequence (Q9NYV4 whole entry): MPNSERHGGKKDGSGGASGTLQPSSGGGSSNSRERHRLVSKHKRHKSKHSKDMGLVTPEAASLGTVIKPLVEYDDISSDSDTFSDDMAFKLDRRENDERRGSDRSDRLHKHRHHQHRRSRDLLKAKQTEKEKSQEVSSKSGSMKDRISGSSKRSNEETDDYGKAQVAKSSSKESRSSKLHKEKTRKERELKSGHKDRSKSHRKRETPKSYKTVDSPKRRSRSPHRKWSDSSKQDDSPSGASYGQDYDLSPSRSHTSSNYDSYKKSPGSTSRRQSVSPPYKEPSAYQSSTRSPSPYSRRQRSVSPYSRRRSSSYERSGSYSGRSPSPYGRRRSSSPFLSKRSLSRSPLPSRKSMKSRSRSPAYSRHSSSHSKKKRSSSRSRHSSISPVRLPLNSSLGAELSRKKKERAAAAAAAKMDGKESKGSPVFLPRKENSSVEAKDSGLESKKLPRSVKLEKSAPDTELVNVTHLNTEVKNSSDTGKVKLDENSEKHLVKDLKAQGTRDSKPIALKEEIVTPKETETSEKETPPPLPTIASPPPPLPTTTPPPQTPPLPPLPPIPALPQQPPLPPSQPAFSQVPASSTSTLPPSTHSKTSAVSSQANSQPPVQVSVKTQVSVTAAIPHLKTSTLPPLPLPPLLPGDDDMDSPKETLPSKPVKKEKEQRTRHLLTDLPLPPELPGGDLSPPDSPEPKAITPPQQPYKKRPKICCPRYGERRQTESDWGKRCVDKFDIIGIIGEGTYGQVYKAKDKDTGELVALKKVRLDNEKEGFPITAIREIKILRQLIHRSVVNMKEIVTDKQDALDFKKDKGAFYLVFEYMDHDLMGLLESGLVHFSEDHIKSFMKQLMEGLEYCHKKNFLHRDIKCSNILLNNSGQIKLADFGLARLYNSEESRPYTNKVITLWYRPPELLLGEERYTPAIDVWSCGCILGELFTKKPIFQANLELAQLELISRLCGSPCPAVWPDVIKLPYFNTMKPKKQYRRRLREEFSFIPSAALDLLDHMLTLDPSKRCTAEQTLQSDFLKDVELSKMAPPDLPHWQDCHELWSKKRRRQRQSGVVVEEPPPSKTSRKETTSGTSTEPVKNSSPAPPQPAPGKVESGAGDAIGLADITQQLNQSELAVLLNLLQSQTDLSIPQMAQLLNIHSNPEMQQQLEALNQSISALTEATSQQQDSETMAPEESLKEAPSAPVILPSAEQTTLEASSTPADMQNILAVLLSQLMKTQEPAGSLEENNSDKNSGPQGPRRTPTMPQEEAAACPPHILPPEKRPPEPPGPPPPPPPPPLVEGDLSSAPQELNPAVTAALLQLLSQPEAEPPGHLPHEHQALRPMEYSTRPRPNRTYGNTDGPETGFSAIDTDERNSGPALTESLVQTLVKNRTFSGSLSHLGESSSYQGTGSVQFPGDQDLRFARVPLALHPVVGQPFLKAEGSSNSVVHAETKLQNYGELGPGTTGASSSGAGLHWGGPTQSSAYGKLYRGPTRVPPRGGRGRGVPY
# CDK12 wt/CycK, sequence (O75909 whole entry partner): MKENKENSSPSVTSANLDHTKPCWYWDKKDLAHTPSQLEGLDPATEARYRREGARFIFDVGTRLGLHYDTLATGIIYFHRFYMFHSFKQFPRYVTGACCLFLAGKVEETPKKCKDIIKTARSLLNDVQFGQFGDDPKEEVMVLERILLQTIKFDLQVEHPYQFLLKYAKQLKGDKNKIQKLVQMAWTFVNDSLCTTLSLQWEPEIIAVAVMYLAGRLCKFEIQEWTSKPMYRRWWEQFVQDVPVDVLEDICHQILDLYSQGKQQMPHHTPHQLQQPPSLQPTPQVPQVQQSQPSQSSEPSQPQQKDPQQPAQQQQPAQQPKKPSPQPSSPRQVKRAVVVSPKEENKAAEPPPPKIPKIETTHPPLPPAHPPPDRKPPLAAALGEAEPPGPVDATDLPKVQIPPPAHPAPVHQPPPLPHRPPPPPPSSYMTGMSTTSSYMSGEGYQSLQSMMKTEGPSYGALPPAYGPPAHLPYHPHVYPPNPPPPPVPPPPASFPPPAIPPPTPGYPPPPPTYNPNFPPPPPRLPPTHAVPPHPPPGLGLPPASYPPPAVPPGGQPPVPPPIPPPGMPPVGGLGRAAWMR
row,IC50 [nM],SMILES
1,1000 to 10000,"O=C(c1cccc(N2C(=O)C=CC2=O)c1)N1CC[C@@H](Nc2ncc(Cl)cn2)C1 [Example 116, (R)-1-(3-(3-((5-chloropyrimidin-2-yl)amino)pyrrolidine-1-carbonyl)phenyl)-1H-pyrrole-2,5-dionefuran-2,5-dione]"
2,< 100,"C=CC(=O)Nc1ccc(C(=O)N2CC[C@@H](Nc3ncc(Cl)c(OCCC#N)n3)C2)cc1 [Example 102, (R)—N-(4-(3-((5-chloro-4-(2-cyanoethoxy)pyrimidin-2-yl)amino)pyrrolidine-1-carbonyl)phenyl)acrylamide]"
3,< 100,"C=CC(=O)Nc1ccc(C(=O)N2CC[C@@H](Nc3ncc(Cl)c(Oc4ccccc4)n3)C2)cc1 [Example 95, (R)—N-(4-(3-((5-chloro-4-phenoxypyrimidin-2-yl)amino)pyrrolidine-1-carbonyl)phenyl)acrylamide]"
4,< 100,"C=CC(=O)Nc1ccc(C(=O)N2CC[C@@H](Nc3ncc(Cl)c(OCCOC)n3)C2)cc1 [Example 88, (R)—N-(4-(3-((5-chloro-4-(2-methoxyethoxy)pyrimidin-2-yl)amino)pyrrolidine-1-carbonyl)phenyl)acrylamide]"
5,100 to 1000,"COc1nc(N[C@@H]2CCN(C(=O)c3ccc(NC(=O)/C=C/CN4CCCC(F)(F)C4)cn3)C2)ncc1Cl [Example 172, (R,E)-N-(6-(3-((5-chloro-4-methoxypyrimidin-2-yl)amino)pyrrolidine-1-carbonyl)pyridin-3-yl)-4-(3,3-difluoropiperidin-1-yl)but-2-enamide]"
6,< 100,"C=CC(=O)Nc1ccc(C(=O)N2C[C@H](Nc3ncc(Cl)c(OC)n3)C[C@@H]2C)cc1 [Example 180, N-(4-((2S,4R)-4-((5-chloro-4-methoxypyrimidin-2-yl)amino)-2-methylpyrrolidine-1-carbonyl)phenyl)acrylamide]"
7,100 to 1000,"COc1nc(N[C@@H]2CCN(C(=O)c3ccc(NC(=O)/C=C/CN4CC[C@H](F)C4)cn3)C2)ncc1Cl [Example 171, (E)-N-(6-((R)-3-((5-chloro-4-methoxypyrimidin-2-yl)amino)pyrrolidine-1-carbonyl)pyridin-3-yl)-4-((S)-3-fluoropyrrolidin-1-yl)but-2-enamide]"
8,100 to 1000,"COc1nc(N[C@@H]2CCN(C(=O)c3ccc(NC(=O)/C=C/CN4CCCC(F)(F)C4)cc3)C2)ncc1Cl [Example 173, (R,E)-N-(4-(3-((5-chloro-4-methoxypyrimidin-2-yl)amino)pyrrolidine-1-carbonyl)phenyl)-4-(3,3-difluoropiperidin-1-yl)but-2-enamide]"
9,< 100,"C=CC(=O)Nc1ccc(C(=O)N2CC[C@@H](Nc3ncc(Cl)c(OCC)n3)C2)nc1 [Example 152, (R)—N-(6-(3-((5-chloro-4-ethoxypyrimidin-2-yl)amino)pyrrolidine-1-carbonyl)pyridin-3-yl)acrylamide]"
10,< 100,"C=CC(=O)Nc1ccc(C(=O)N2CC[C@@H](Nc3ncc(C(F)(F)F)c(N)n3)C2)cc1 [Example 91, (R)—N-(4-(3-((4-amino-5-(trifluoromethyl)pyrimidin-2-yl)amino)pyrrolidine-1-carbonyl)phenyl)acrylamide]"
11,100 to 1000,"C/C=C/C(=O)Nc1ccc(C(=O)N2CC[C@@H](Nc3ncc(Cl)cn3)C2)cc1 [Example 131, (R,E)-N-(4-(3-((5-chloropyrimidin-2-yl)amino)pyrrolidine-1-carbonyl)phenyl)but-2-enamide]"
12,< 100,"C=CC(=O)Nc1ccc(C(=O)N2CC[C@@H](Nc3ncc(Cl)c(OCC)n3)C2)cc1 [Example 96, (R)—N-(4-(3-((5-chloro-4-ethoxypyrimidin-2-yl)amino)pyrrolidine-1-carbonyl)phenyl)acrylamide]"
13,100 to 1000,"C=CC(=O)Nc1ccc(C(=O)N2CC[C@@H](Nc3ncc(Cl)c(OCC)n3)C2)cc1N1CCN(C)CC1 [Example 119, (R)—N-(4-(3-((5-chloro-4-ethoxypyrimidin-2-yl)amino)pyrrolidine-1-carbonyl)-2-(4-methylpiperazin-1-yl)phenyl)acrylamide]"
14,1000 to 10000,"C=CC(=O)N1CCc2cc(C(=O)N3CC[C@@H](Nc4ncc(Cl)cn4)C3)ccc2C1 [Example 132, (R)-1-(6-(3-((5-chloropyrimidin-2-yl)amino)pyrrolidine-1-carbonyl)-3,4-dihydroisoquinolin-2(1H)-yl)prop-2-en-1-one]"
15,100 to 1000,"COc1nc(N[C@@H]2CCN(C(=O)c3ccc(NC(=O)/C=C/CN4CC[C@@H](F)C4)nc3)C2)ncc1Cl [Example 179, (E)-N-(5-((R)-3-((5-chloro-4-methoxypyrimidin-2-yl)amino)pyrrolidine-1-carbonyl)pyridin-2-yl)-4-((R)-3-fluoropyrrolidin-1-yl)but-2-enamide]"
16,100 to 1000,"COc1nc(N[C@@H]2CCN(C(=O)c3ccc(NC(=O)/C=C/CN4CCC[C@H](F)C4)cn3)C2)ncc1Cl [Example 175, (E)-N-(6-((R)-3-((5-chloro-4-methoxypyrimidin-2-yl)amino)pyrrolidine-1-carbonyl)pyridin-3-yl)-4-((S)-3-fluoropiperidin-1-yl)but-2-enamide]"
17,30000 to 100000,"C=CC(=O)Nc1ccc(C(=O)N2CC[C@@H](Nc3ncc(Cl)c(O)n3)C2)cc1 [Example 97, (R)—N-(4-(3-((5-chloro-4-hydroxypyrimidin-2-yl)amino)pyrrolidine-1-carbonyl)phenyl)acrylamide]"
18,< 100,"C=CC(=O)Nc1ccc(C(=O)N2CC[C@@H](Nc3ncc(C(F)(F)F)c(NC)n3)C2)cc1 [Example 120, (R)—N-(4-(3-((4-(methylamino)-5-(trifluoromethyl)pyrimidin-2-yl)amino)pyrrolidine-1-carbonyl)phenyl)acrylamide]"

row,SMILES,IC50 [nM]
1,"C=CC(=O)Nc1ccc(C(=O)N2CC[C@@H](Nc3ncc(Br)cn3)C2)cc1N(C)CCN(C)C [Example 159, (R)—N-(4-(3-((5-bromopyrimidin-2-yl)amino)pyrrolidine-1-carbonyl)-2-((2-(dimethylamino)ethyl)(methyl)amino)phenyl)acrylamide]",1000 to 10000
2,"C=CC(=O)Nc1ccc(C(=O)N2CC[C@@H](Nc3ncc(Br)cn3)C2)cc1N1CCC(N(C)C)CC1 [Example 158, (R)—N-(4-(3-((5-bromopyrimidin-2-yl)amino)pyrrolidine-1-carbonyl)-2-(4-(dimethylamino)piperidin-1-yl)phenyl)acrylamide]",100 to 1000
3,"C=CC(=O)Nc1ccc(C(=O)N2CC[C@@H](Nc3ncc(Cl)cn3)C2)cc1OC1CCOC1 (stereo partly drawn) [Example 103, N-(4-((R)-3-((5-chloropyrimidin-2-yl)amino)pyrrolidine-1-carbonyl)-2-((tetrahydrofuran-3-yl)oxy)phenyl)acrylamide]",100 to 1000
4,"C=CC(=O)N(C)c1ccc(C(=O)N2CC[C@@H](Nc3ncc(C#N)cn3)C2)cc1 [Example 70, (R)—N-(4-(3-((5-cyanopyrimidin-2-yl)amino)pyrrolidine-1-carbonyl)phenyl)-N-methylacrylamide]",100 to 1000
5,"C=CC(=O)Nc1ccc(C(=O)N2CC[C@](C)(Nc3ncc(Cl)cn3)C2)cc1 [Example 108, (S)—N-(4-(3-((5-chloropyrimidin-2-yl)amino)-3-methylpyrrolidine-1-carbonyl)phenyl)acrylamide]",30000 to 100000
6,"[2H]C([2H])([2H])Oc1nc(N[C@@H]2CCN(C(=O)c3cccc(N4C(=O)C=CC4=O)c3)C2)ncc1Cl [Example 128, (R)-1-(3-(3-((5-chloro-4-(trideuteriomethoxy)pyrimidin-2-yl)amino)pyrrolidine-1-carbonyl)phenyl)-1H-pyrrole-2,5-dione]",1000 to 10000
7,"C=CC(=O)N(C)c1ccc(C(=O)N2CC[C@@H](Nc3ncc(Br)cn3)C2)cc1 [Example 104, (R)—N-(4-(3-((5-bromopyrimidin-2-yl)amino)pyrrolidine-1-carbonyl)phenyl)-N-methylacrylamide]",< 100
